One assay deals with T1, human JAK2 (Homo sapiens, UniProt O60674).
T1 construct: The kinase domain of human JAK2 was amplified; GST (N); made in house; host or cells: Sf9 insect cells (baculovirus)
Description: Alphascreen tyrosine kinase enzyme assay, JAK2 kinase domain. In kind it is biochemical. Conditions: read-out: JAK2 IC50_nM. In short, it runs like this: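 JAK2 kinase domain expressed in baculovirus/Sf9 and glutathione-affinity purified. Compounds (final […]) pre-incubated 20 min with enzyme in 10 mM HEPES pH 7.5, MgCl2, NaCl, vanadate, 0.1% Tween 20.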

Assay [1] deals with T2, BaF3 TELJAK2 cells (BafT_J2) (Homo sapiens, UniProt O60674).
T2 construct: fused on or other part: TEL (ETV6) N-terminal part, coding nucleotides 1-487, serves as the oligomerising partner; It is fused through a Sal I site to the JAK2 kinase domain and expressed from pTRE2 in BaF3 cells bearing pTET-off; P41212 (Transcription factor ETV6)
Put plainly: Cellular screening, BaF3 TEL:JAK2 cells, Alamar Blue. Conditions: 40 hr, read-out: BafT_J2 IC50_nM. In kind it is cell-based. In short, it runs like this: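 Tet-off BaF3 cells carrying a TEL (nt 1-487)–JAK2 kinase-domain fusion, grown factor-independently in DMEM with 10% Tet-approved FBS without WEHI 3B medium. Compounds were diluted to 20 μM in screening plates, and cells (50,000–200,000 cell/mL at 1.1×) were incubated 40 hr at 37 °C, 5% CO2. Alamar Blue was then added for 4-6 hours; read at 544 nm.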

For 1 molecule, IC50 and GI50 results are on record in US8846704B2, “Thiopyrimidine-based compounds and uses thereof” (YM Biosciences Austraila Pty Ltd, priority 2007, dated 2014).

T1 sequence (O60674 849-1124 limits assumed): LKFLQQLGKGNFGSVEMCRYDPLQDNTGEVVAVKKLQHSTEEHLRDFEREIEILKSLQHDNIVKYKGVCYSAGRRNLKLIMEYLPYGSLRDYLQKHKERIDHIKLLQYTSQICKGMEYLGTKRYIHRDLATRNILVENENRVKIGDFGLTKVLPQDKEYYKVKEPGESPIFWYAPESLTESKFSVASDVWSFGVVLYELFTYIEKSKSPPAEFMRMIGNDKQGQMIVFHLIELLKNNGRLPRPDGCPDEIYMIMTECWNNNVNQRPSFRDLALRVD
T2 sequence (O60674 whole entry, change not shown, the tested form may be a part): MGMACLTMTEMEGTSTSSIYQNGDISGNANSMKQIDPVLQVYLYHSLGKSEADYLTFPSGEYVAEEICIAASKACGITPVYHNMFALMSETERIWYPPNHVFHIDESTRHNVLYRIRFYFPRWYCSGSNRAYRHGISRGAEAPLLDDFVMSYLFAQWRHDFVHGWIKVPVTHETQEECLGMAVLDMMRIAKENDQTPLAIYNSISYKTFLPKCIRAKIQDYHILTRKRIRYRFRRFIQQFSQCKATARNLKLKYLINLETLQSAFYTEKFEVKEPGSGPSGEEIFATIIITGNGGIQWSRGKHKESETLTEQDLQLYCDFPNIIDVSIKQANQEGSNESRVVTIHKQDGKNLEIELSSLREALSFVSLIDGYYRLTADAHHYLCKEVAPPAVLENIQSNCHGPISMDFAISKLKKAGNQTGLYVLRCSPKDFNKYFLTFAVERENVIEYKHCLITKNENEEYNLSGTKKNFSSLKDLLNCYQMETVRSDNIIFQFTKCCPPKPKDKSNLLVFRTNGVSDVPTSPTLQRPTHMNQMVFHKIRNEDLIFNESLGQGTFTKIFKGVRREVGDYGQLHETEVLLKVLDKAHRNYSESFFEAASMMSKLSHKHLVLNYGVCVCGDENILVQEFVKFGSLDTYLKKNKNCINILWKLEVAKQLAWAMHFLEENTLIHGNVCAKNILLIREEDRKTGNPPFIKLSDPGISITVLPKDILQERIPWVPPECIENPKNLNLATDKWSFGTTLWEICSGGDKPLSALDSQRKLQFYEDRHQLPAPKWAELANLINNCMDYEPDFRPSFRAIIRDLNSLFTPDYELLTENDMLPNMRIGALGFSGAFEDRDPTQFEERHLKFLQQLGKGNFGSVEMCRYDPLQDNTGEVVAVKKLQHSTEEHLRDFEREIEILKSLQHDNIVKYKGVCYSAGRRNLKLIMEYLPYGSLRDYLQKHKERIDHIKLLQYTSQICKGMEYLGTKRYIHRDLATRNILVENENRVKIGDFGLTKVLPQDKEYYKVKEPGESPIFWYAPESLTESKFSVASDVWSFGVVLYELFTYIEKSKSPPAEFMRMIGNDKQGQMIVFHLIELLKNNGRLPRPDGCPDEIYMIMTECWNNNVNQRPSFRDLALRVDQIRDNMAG

`CNC(=O)/C=C\C(=O)Nc1ccc(Sc2nc(Nc3ccc(N4CCOCC4)cc3)ncc2C)cc1` [Compound 389, N1-methyl-N4-(4-(5-methyl-2-(4-morpholinophenylao)pyrimidin-4-ylthio)phenyl)maleamide]: on human JAK2, the IC50 is above 1 µM. The GI50 in assay [1] is below 20 µM.
